For test [1], the target named is T1, interaction between the KRAS protein subtype G12V and the SOS1 protein (Homo sapiens, UniProt Q07889).
T1 construct: GST-TEV-SOS1(564-1049) (Viva Biotech, SOS1-191010); purchased SOS1: Viva Biotech; KRAS: Shanghai Panchao Biotechnology Co., Ltd. SOS1-191010
T1 sequence (Q07889 564-1049): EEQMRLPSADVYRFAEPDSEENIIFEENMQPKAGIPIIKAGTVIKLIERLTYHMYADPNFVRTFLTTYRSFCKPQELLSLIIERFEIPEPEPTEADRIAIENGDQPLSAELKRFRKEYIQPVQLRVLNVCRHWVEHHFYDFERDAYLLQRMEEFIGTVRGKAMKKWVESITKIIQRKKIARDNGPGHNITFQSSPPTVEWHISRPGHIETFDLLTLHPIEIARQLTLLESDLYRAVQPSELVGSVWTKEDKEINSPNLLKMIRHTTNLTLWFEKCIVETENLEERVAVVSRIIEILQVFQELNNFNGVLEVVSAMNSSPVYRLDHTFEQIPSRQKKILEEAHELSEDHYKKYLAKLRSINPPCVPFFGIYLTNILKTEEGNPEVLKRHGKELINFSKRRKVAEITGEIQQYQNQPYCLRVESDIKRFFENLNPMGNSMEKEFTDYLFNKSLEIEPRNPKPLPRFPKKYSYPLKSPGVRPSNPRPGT
Briefly: Inhibition of the interaction between KRAS G12V and SOS1 protein (AlphaLISA/AlphaScreen). Particulars: KRAS G12V + GST-TEV-SOS1(564-1049) + GDP. The class given is binding. As to the method: (§1) Test Example 1: Inhibitory Ability of Compounds of the Present Disclosure to the Interaction Between the KRAS Protein Subtype G12D or G12V and the SOS1 Protein. The inhibitory ability of the compounds of the present disclosure to the interaction between the KRAS protein subtype G12D or G12V and the SOS1 protein was determined by the following method. The experimental method was briefly described as follows:
(§2) 1. The experimental buffer was prepared prior to the start of the experiment: 1×PBS+0.1% BSA+0.05% tween 20.
(§3) 2. KRAS G12D and KRAS-G12V proteins were labeled with biotin using the biotin labeling kit.
(§4) 1. Firstly, the biotin-labeled KRAS G12D or KRAS G12V protein was mixed and incubated with the SOS1 protein and GDP for later use.
(§5) 2. AlphaLISA glutathione acceptor beads and AlphaScreen streptavidin donor beads were mixed at a ratio of 1:1 to make the concentration of 40 μg/mL for later use.
(§6) 3. The compound was formulated with the experimental buffer to obtain 10 concentration points by 5-fold gradient dilution from an initial concentration of 40 μM.
(§7) 4. In the 384-well microplate, 10 μL of a mixture of KRAS G12D or KRAS G12V protein and SOS1 and GDP and 5 μL of the diluted compound were added to each well and incubated at room temperature for 30 min away from the light.
(§8) 5. Then, 5 μL of a mixture of AlphaLISA glutathione acceptor beads and AlphaScreen streptavidin donor beads was added to each well and incubated at room temperature for 60 min away from the light.
(§9) 6. The fluorescence values were read on a multi-mode microplate reader.
(§10) 7. IC50 values of the compounds were calculated using Graphpad Prism.

Test [2] deals with T2, interaction between the KRAS protein subtype G12D and the SOS1 protein (Homo sapiens, UniProt Q07889).
T2 construct: GST-TEV-SOS1(564-1049) (Viva Biotech, SOS1-191010); purchased SOS1: Viva Biotech; KRAS: Shanghai Panchao Biotechnology Co., Ltd. SOS1-191010
T2 sequence (Q07889 564-1049): T1 sequence (Q07889 564-1049)
In words: Inhibition of the interaction between KRAS G12D and SOS1 protein (AlphaLISA/AlphaScreen). The class given is binding. Particulars: KRAS G12D + GST-TEV-SOS1(564-1049) + GDP. As to the method:
as §1, §2, §3, §4, §5, §6, §7, §8, §9, §10

For a further test, the system named is H358 cells. In words: Inhibition of proliferation of H358 cells (CellTiter-Glo 3D). The class given is cell-based. Particulars: Homo sapiens, NCI-H358, low adsorption plate, 120 h. As to the method: This example is intended to evaluate the inhibition effect of the compounds of the present disclosure on the KRAS target (containing the G12C mutation) by testing the inhibition effect of the compounds of the present disclosure on the proliferation of H358 cells.
H358 cells (ATCC, CRL-5807) were cultured in a complete medium, namely RPMI1640 medium (Hyclone, SH30809.01) containing 10% fetal bovine serum (Corning, 35-076-CV). On the first day of the experiment, the H358 cells were seeded into a 96-well low adsorption plate (Coming, CLS7007-24EA) at a density of 1500 cells/well with a complete medium to form 90 μL of cell suspension per well. The plate was centrifuged at 2000 rpm for 5 min at room temperature and then incubated overnight in a cell incubator at 37° C. with 5% CO2. The next day, 10 μL of test compound diluted in a gradient prepared with the complete medium was added to each well. The final concentrations of the compound were 9 concentration points obtained by 5-fold gradient dilution from 10 μM. A blank control containing 0.1% DMSO was set. The plate was incubated in a cell incubator at 37° C. with 5% CO2 for 120 h. On the seventh day, the 96-well cell culture plate was taken out and 50 μL of CellTiter-Glo® 3D reagent (Promega, G9682) was added into each well. The plate was shaken at room temperature for 25 min, pipetted and mixed well, from which 50 μL of the mixture was transferred into a white impermeable 96-well plate (PE, 6005290). The luminescence signal values were read using a multi-mode microplate reader (PerkinElmer, VICTOR 3).
IC50 values for the inhibitory activity of the compounds were calculated using Graphpad Prism software.

Test [3] concerns ERK phosphorylation of H358 cells. In words: Inhibition of ERK phosphorylation of H358 cells (HTRF pERK/total ERK). The class given is cell-based. Particulars: Homo sapiens, NCI-H358, 1 h incubation, pERK/total ERK ratio. As to the method:
This experiment is intended to evaluate the inhibition effect of the compounds of the present disclosure on the KRAS target (containing the G12C mutation) according to IC50 by determining the inhibition effect of the compounds on ERK phosphorylation of the cells.
H358 cells (ATCC, CRL-5807) were cultured in RPMI1640 (Hyclone, SH30809.01) complete medium containing 10% fetal bovine serum. On the first day of the experiment, the H358 cells were seeded into a 96-well plate at a density of 25,000 cells/well with a complete medium to form 190 μL of cell suspension per well. The plate was incubated overnight in a cell incubator at 37° C. with 5% CO2. The next day, 10 μL of test compound diluted in a gradient prepared with the complete medium was added to each well. The final concentrations of the compound were 9 concentration points obtained by 5-fold gradient dilution from 10 μM. A blank control containing 0.1% DMSO was set. The plate was incubated in a cell incubator at 37° C. with 5% CO2 for 1 h. 1 h later, the 96-well cell culture plate was taken out, the medium was removed by pipetting, 200 μL PBS (Shanghai BasalMedia Technologies Co., Ltd., B320) was added to each well, and the cells were washed once. PBS was removed by pipetting, 50 μL of lysis buffer (Cisbio, 64KL1FDF) containing a blocking reagent (Cisbio, 64KB1AAC) was added to each well, and the plate was shaken on a shaker at room temperature for 40 min for lysis. After lysis, the lysate was pipetted and mixed well, 16 μL of lysate was transferred from each well to each of two HTRF 96-well assay plates (Cisbio, 66PL96100), and then 4 μL of premixed phospho-ERK1/2 antibody solution (Cisbio, 64AERPEG) or 4 μL of premixed total-ERK1/2 antibody solution (Cisbio, 64NRKPEG) was added to each of the two plates. The microplate was sealed with a sealing membrane, centrifuged for 1 min in a microplate centrifuge, and incubated overnight at room temperature away from the light. On the third day, the fluorescence values at an excitation wavelength of 337 nm and at emission wavelengths of 665 nm and 620 nm were read using a PHERAstar multi-mode microplate reader (BMG Labtech, S/N 471-0361).
IC50 values for inhibitory activity of the compounds were calculated using Graphpad Prism software based on compound concentrations and pERK/total ERK ratio.

Structures are written as SMILES.

With `Cc1nc(N[C@H](C)c2cccc(C(F)F)c2F)c2cc(C3(O)CCN(C(=O)CF)CC3)c(=O)[nH]c2n1` (racemic) [Example 22, rac-(R)-4-((1-(3-(difluoromethyl)-2-fluorophenyl)ethyl)amino)-6-(1-(2-fluoroacetyl)-4-hydroxypiperidin-4-yl)-2-methylpyrido[2,3-d]pyrimidin-7(8H)-one], the IC50 in test [1] worked out at 27 nM; in test [2] it was 14 nM.

Turning to `Cc1nc(N[C@H](C)c2cccc(C(F)F)c2F)c2cc(OC3CCS(=O)(=O)CC3)c(=O)[nH]c2n1` [Example 23, (R)-4-((1-(3-(difluoromethyl)-2-fluorophenyl)ethyl)amino)-6-((1,1-dioxidotetrahydro-2H-thiopyran-4-yl)oxy)-2-methylpyrido[2,3-d]pyrimidin-7(8H)-one], the IC50 was 89 nM in test [1] and 10 nM in test [2].

Consider `Cc1nc(N[C@H](C)c2cccc(C(F)F)c2F)c2cc(C3=CCC(C(=O)N(C)C)CC3)c(=O)[nH]c2n1` (stereo partly drawn) [Example 13, 4-(4-(((R)-1-(3-(difluoromethyl)-2-fluorophenyl)ethyl)amino)-2-methyl-7-oxo-7,8-dihydropyrido[2,3-d]pyrimidin-6-yl)-N,N-dimethylcyclohex-3-ene-1-carboxamide], for which the IC50 in the test on H358 cells was determined as 137 nM; in test [1] it was 79 nM; in test [2], 21.5 nM.

`CNC(=O)C1CCC(O)(c2cc3c(N[C@H](C)c4cccc(C(F)F)c4F)nc(C)nc3[nH]c2=O)CC1` (stereo partly drawn) [Example 29, (R)-4-(4-((1-(3-(difluoromethyl)-2-fluorophenyl)ethyl)amino)-2-methyl-7-oxo-7,8-dihydropyrido[2,3-d]pyrimidin-6-yl)-4-hydroxy-N-methylcyclohexane-1-carboxamide]: the IC50 stood at 545 nM in the test on H358 cells, 101 nM in test [1] and 91 nM in test [2].

As for `Cc1nc(N[C@H](C)c2cccc(C(F)(F)CO)c2F)c2cc(OC3CCOC3)c(=O)[nH]c2n1` (stereo partly drawn) [Example 9, 4-(((R)-1-(3-(1,1-difluoro-2-hydroxyethyl)-2-fluorophenyl)ethyl)amino)-2-methyl-6-(((R)-tetrahydrofuran-3-yl)oxy)pyrido[2,3-d]pyrimidin-7(8B)-one], the IC50 is 106 nM in the test with H358 cells, 41 nM in test [1] and 8 nM in test [2].

Regarding `Cc1nc(N[C@H](C)c2cccc(C(F)F)c2F)c2cc(C3(O)CCOCC3)c(=O)[nH]c2n1` [Example 19, (R)-4-((1-(3-(difluoromethyl)-2-fluorophenyl)ethyl)amino)-6-(4-hydroxytetrahydro-2H-pyran-4-yl)-2-methylpyrido[2,3-d]pyrimidin-7(8H)-one], the IC50 stood at 154 nM in test [1] and 47 nM in test [2].

Turning to `Cc1nc(N[C@H](C)c2cccc(C(F)F)c2F)c2cc(C3CCOCC3)c(=O)[nH]c2n1` [Example 6, (R)-4-((1-(3-(difluoromethyl)-2-fluorophenyl)ethyl)amino)-2-methyl-6-(tetrahydro-2H-pyran-4-yl)pyrido[2,3-d]pyrimidin-7(8H)-one], the IC50 in the test with H358 cells is 345 nM; in test [1], 56 nM; in test [2] it was 30 nM.

For `CC(=O)N1CC(Oc2cc3c(N[C@H](C)c4cccc(C(F)F)c4F)nc(C)nc3[nH]c2=O)C1` (racemic) [Example 26, rac-(R)-6-((1-acetylazetidin-3-yl)oxy)-4-((1-(3-(difluoromethyl)-2-fluorophenyl)ethyl)amino)-2-methylpyrido[2,3-d]pyrimidin-7(8H)-one], the IC50 is 346 nM in the test on H358 cells, 65 nM in test [1] and 44 nM in test [2].

Take `Cc1nc(N[C@H](C)c2cccc(C(F)F)c2F)c2cc(O[C@H]3CCOC3)c(=O)[nH]c2n1` [Example 10, 4-(((R)-1-(3-(difluoromethyl)-2-fluorophenyl)ethyl)amino)-2-methyl-6-(((S)-tetrahydrofuran-3-yl)oxy)pyrido[2,3-d]pyrimidin-7(8H)-one]: the IC50 came out at 80 nM in test [1] and 34 nM in test [2].

Take `CC(=O)N1CC[C@H](Oc2cc3c(N[C@H](C)c4cccc(C(F)F)c4F)nc(C)nc3[nH]c2=O)C1` [Example 24, 6-(((S)-1-acetylpyrrolidin-3-yl)oxy)-4-(((R)-1-(3-(difluoromethyl)-2-fluorophenyl)ethyl)amino)-2-methylpyrido[2,3-d]pyrimidin-7(8H)-one]: the IC50 in test [1] is 133 nM; in test [2], 49 nM.

Regarding `Cc1nc(N[C@H](C)c2cccc(C(F)F)c2F)c2cc(C3=CCOCC3)c(=O)[nH]c2n1` [Example 5, (R)-4-((1-(3-(difluoromethyl)-2-fluorophenyl)ethyl)amino)-6-(3,6-dihydro-2H-pyran-4-yl)-2-methylpyrido[2,3-d]pyrimidin-7(8H)-one], the IC50 with H358 cells came to 461 nM; in test [1] it was 79 nM; in test [2], 42 nM.

In the case of `Cc1nc(N[C@H](C)c2cc(N)cc(C(F)(F)F)c2)c2cc(C3=CCOCC3)c(=O)[nH]c2n1` [Example 3, (R)-4-((1-(3-amino-5-(trifluoromethyl)phenyl)ethyl)amino)-6-(3,6-dihydro-2H-pyran-4-yl)-2-methylpyrido[2,3-d]pyrimidin-7(8H)-one], in test [3], the IC50 turned out to be 55 nM.

These data come from US20230219951A1, “PYRIDINE-PYRIMIDINE DERIVATIVE, PREPARATION METHOD THEREFOR AND PHARMACEUTICAL USE THEREOF” (Jiangsu Hengrui Pharmaceuticals Co., Ltd., priority 2020, published 2023).
